According to ChEMBL document CHEMBL3593163, “Synthesis and Characterization of 5-Hydroxy-2-(2-phenylethyl)chromone (5-HPEC) and Its Analogues as Non-nitrogenous 5-HT2B Ligands” (J Nat Prod, 2015):

What was measured:
[1] = target: 5-hydroxytryptamine receptor 2B (Homo sapiens) (UniProt P41595); assay: Displacement of [3H]LSD from human 5HT2B receptor expressed in stable HEK cells membranes at 10 uM; type: cell membranes; conditions: HEK293
[2] = target: T1, 5-hydroxytryptamine receptor 2C (Homo sapiens) (UniProt P28335); assay: Displacement of [3H]mesulergine from human 5HT2C receptor expressed in Flp-IN HEK cell membranes at 10 uM; conditions: HEK293
T1 sequence (whole entry): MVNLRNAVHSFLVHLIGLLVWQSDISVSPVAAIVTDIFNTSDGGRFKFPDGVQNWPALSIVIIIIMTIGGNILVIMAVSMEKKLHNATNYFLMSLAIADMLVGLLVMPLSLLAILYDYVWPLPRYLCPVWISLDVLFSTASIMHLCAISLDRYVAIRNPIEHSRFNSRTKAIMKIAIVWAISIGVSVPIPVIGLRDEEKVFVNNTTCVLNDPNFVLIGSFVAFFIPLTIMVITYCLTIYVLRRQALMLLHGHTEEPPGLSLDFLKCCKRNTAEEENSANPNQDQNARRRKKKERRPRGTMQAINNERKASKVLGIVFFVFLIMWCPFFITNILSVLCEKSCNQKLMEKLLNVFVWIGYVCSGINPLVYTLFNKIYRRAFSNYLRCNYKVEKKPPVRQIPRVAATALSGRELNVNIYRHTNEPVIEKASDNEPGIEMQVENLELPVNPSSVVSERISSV

[3] = target: 5-hydroxytryptamine receptor 2A (Homo sapiens) (UniProt P28223); assay: Displacement of [3H]ketanserin from human 5HT2A receptor expressed in HEKT cells membranes at 10 uM; type: cell membranes
[4] = target: 5-hydroxytryptamine receptor 2B (Homo sapiens) (UniProt P41595); assay: Antagonist activity against human 5HT2B receptor expressed in Flp-IN HEK cells assessed as inhibition of 5-HT-induced response at 10 uM by calcium mobilization assay; type: functional, cell-based; conditions: HEK293
[5] = target: 5-hydroxytryptamine receptor 2B (Homo sapiens) (UniProt P41595); assay: Potency index, ratio of pKi for 5-HPEC to pKi for test compound against human 5HT2B receptor expressed in stable HEK cells membranes; type: cell-based; conditions: HEK293
[6] = target: 5-hydroxytryptamine receptor 2B (Homo sapiens) (UniProt P41595); assay: Agonist activity at human 5HT2B receptor expressed in Flp-IN HEK cells at 10 um by calcium mobilization assay relative to 5-HT; type: functional, cell-based; conditions: HEK293

5-hydroxytryptamine receptor 2A (Homo sapiens), sequence (P28223 whole entry): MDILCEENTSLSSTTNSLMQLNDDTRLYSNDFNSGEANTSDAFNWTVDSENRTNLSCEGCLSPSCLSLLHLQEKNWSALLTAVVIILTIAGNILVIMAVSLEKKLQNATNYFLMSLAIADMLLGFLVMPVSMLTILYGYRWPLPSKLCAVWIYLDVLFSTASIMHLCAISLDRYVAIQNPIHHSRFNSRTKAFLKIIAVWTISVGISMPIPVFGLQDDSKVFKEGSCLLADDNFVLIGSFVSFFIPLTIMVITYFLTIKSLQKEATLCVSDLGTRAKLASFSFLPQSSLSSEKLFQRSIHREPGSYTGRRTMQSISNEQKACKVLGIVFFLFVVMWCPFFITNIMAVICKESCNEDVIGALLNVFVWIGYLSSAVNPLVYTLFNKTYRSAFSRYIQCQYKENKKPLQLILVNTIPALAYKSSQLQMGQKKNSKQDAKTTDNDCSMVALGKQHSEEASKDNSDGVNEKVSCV
5-hydroxytryptamine receptor 2B (Homo sapiens), sequence (P41595 whole entry): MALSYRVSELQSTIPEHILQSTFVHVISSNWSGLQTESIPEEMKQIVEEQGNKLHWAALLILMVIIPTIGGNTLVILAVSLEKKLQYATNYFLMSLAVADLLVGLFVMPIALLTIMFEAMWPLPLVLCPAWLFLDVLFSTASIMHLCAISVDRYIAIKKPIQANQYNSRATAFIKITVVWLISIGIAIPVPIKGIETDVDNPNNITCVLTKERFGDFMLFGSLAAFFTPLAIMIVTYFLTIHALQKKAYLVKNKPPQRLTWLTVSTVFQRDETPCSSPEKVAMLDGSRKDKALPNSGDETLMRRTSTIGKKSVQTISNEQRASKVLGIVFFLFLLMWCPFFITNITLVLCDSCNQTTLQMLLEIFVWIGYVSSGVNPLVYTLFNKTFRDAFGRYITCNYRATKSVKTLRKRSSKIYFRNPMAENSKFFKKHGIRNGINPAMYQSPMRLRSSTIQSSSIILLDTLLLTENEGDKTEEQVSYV

Compound | inhibition [1] | inhibition [2] | inhibition [3] | inhibition [4] | Ratio [5] | Efficacy [6]
O=c1cc(CCc2ccccc2O)oc2cc(O)ccc12 | 16.6% | 44% | 47.9% |  |  | 
O=c1cc(CCc2cccc(O)c2)oc2cc(O)ccc12 | 25.3% | 0% | 23.2% |  |  | 
O=c1cc(CCc2ccco2)oc2cccc(O)c12 | 68.8% | 24.2% | 12.4% |  |  | 
O=c1cc(CCc2ccccc2O)oc2cccc(O)c12 | 12.8% | 23.8% | 24.3% |  |  | 
O=c1cc(CCCc2ccccc2)oc2cccc(O)c12 |  |  |  | 20.5% | 10 | 0.23%
O=c1cc(CCc2cccc(O)c2)oc2cccc(O)c12 | 76.3% | 30.4% | 39% |  |  | 
O=c1cc(CCc2ccc(O)cc2)oc2cc(O)ccc12 | 40.8% | 53.1% | 33.3% |  |  | 
O=c1cc(COCc2ccccc2)oc2cccc(O)c12 | 77.7% | 42.1% | 3.2% |  |  | 
O=c1cc(COc2ccccc2)oc2cccc(O)c12 |  | 7% |  |  |  | 
O=c1cc(CCc2ccccc2)oc2cc(O)ccc12 | 34.2% | 33.7% | 35.5% |  |  | 
